Data taken from patent US10966978B2, “Dose and regimen for HDM2-p53 interaction inhibitors” (Novartis AG, priority 2016, dated 2021).
Like-named read-outs stand apart in the source and are kept apart here.

Assay: Clinical PK of HDM201 in patients (non-compartmental and population PK), study HDM201X2101
Assay type: in vivo, human
Details: for AUC(0-t): read-out: AUClast (0-24 h), Geo Mean (% CV); for Cmax: read-out: Cmax, Geo Mean (% CV); for dose proportionality of PK (AUClast and Cmax): over the dose range studied, single and repeated doses
Procedure: Pharmacokinetic data have been evaluated throughout the course of the dose escalation. Two HDM201 drug variants have been evaluated during the course of the study (refer to the protocol for further details). […] Furthermore, an integrated analysis of all available HDM201 concentrations was conducted using a population approach. The PK of HDM201 was best described by a 1-compartment PK model with a delayed zero- and first-order absorption process, and a linear clearance. Body weight was identified as a statistically significant covariate on apparent central volume of distribution (Vc/F), in which Vc/F increased with increasing body weight.
Inter-patient variability (CV % Geo-mean) in exposure was generally low to moderate. Compartmental population PK modeling of NVP-HDM201 was used to estimate the individual average plasma concentration for Cycle 1 and to allow comparison with preclinical average concentration for tumor stasis derived by PK/PD tumor growth modeling.
The PK of HDM201 have been evaluated in the ongoing single agent Phase I clinical trial in patients with solid tumors and hematological malignancies (HDM201X2101). Patients have been treated with a single dose on Day 1 in a three-week cycle (q3w, regimen 1A), with a single dose on Day 1 and Day 8 in a four-week cycle (d1 and d8 of 4 w cycle, regimen 1B), or with daily dosing for the first 7 or 14 days in a four-week cycle (regimen 2C [q.d., 1 w on/3 w off] or regimen 2A [q.d., 2 w on/2 w off], respectively). PK assessments were conducted following single dose and repeated administration. Preliminary PK parameters from non-compartmental analysis of plasma concentration-time profiles are summarized by dose regimen and tumor type (data cut-off 1 Apr. 2016). PK parameters for Regimen 2A (Day 1 and 14 of Cycle 1 for doses from 1 to 20 mg) and Regimen 1A (Day 1 of Cycle 1 for doses from 12.5 to 350 mg) in solid tumor patients are summarized as representative of the PK for daily and less frequent dosing regimens (Tables 9, 10 and 11).
Following oral dosing (HDM201 capsule, fasted), the median time to reach maximum plasma concentrations ranged from 2.0 to 5.8 h across the dose range (2 to 350 mg). With the daily dosing regimen, HDM201 steady-state was generally reached by Day 8, and accumulation was less than 2-fold. […]
Furthermore, the individual PK data was best described by a 1-compartment PK model with a delayed zero- and first-order absorption process (data cut-off 1 Apr. 2016). […] Body weight was identified as a statistically significant covariate on Vc/F.

[1] = human, plasma, oral, 7.5 mg, Regimen 2A 7.5 mg daily, Day 14, solid malignancies, N = 2
[2] = human, plasma, oral, 20 mg, Regimen 2A 20 mg daily, Day 14, solid malignancies, N = 4
[3] = human, plasma, oral, 20 mg, Regimen 2A 20 mg, Day 1 single dose, solid malignancies, N = 5
[4] = human, plasma, oral, 250 mg, Regimen 1A 250 mg, Day 1 single dose, solid malignancies, N = 6
[5] = human, plasma, oral, 350 mg, Regimen 1A 350 mg, Day 1 single dose, solid malignancies, N = 5

With COc1ncc(-c2nc3c(n2C(C)C)[C@H](c2ccc(Cl)cc2)N(c2cc(Cl)cn(C)c2=O)C3=O)c(OC)n1 [HDM201, (S)-5-(5-Chloro-1-methyl-2-oxo-1,2-dihydro-pyridin-3-yl)-6-(4-chloro-phenyl)-2-(2,4-dimethoxy-pyrimidin-5-yl)-1-isopropyl-5,6-dihydro-1H-pyrrolo[3,4-d]imidazol-4-one] the AUC(0-t) [1] was 222 ng·h/mL, the Cmax [1] was 36.1 ng/mL and the Tmax (human, plasma, oral, 7.5 mg, Regimen 2A 7.5 mg daily, Day 14, solid malignancies, N = 2, read-out: Tmax, median) was 3.9 h. The Cmax (human, plasma, oral, 7.5 mg, Regimen 2A 7.5 mg, Day 1 single dose, solid malignancies, N = 4) was 39 ng/mL, the Tmax (human, plasma, oral, 7.5 mg, Regimen 2A 7.5 mg, Day 1 single dose, solid malignancies, N = 4, read-out: Tmax, median) was 5.8 h and the Tmax (human, plasma, oral, 12.5 mg, Regimen 1A 12.5 mg, Day 1 single dose, solid malignancies, N = 1, read-out: Tmax, median) was 3.2 h. It also gave a Tmax (human, plasma, oral, 15 mg, Regimen 2A 15 mg daily, Day 14, solid malignancies, N = 4, read-out: Tmax, median) of 3 h, a Tmax (human, plasma, oral, 15 mg, Regimen 2A 15 mg, Day 1 single dose, solid malignancies, N = 4, read-out: Tmax, median) of 3.1 h and an AUC(0-t) [2] of 1260 ng·h/mL. The Cmax [2] was 214 ng/mL, the Tmax (human, plasma, oral, 20 mg, Regimen 2A 20 mg daily, Day 14, solid malignancies, N = 4, read-out: Tmax, median) was 4 h and the AUC(0-t) [3] was 2300 ng·h/mL. It also gave a Cmax [3] of 164 ng/mL, a Tmax (human, plasma, oral, 20 mg, Regimen 2A 20 mg, Day 1 single dose, solid malignancies, N = 5, read-out: Tmax, median) of 2 h and a Cmax (human, plasma, oral, 25 mg, Regimen 1A 25 mg, Day 1 single dose, solid malignancies, N = 1) of 100 ng/mL. For the same compound, the Tmax (human, plasma, oral, 25 mg, Regimen 1A 25 mg, Day 1 single dose, solid malignancies, N = 1, read-out: Tmax, median) was 2.1 h, the Tmax (human, plasma, oral, 50 mg, Regimen 1A 50 mg, Day 1 single dose, solid malignancies, N = 4, read-out: Tmax, median) was 3 h and the half-life (human, plasma, oral, 50 mg, Regimen 1A 50 mg, Day 1 single dose, solid malignancies, N = 4, read-out: T½, Geo Mean (% CV) (converted)) was 11.8 h. It also gave a half-life (human, plasma, oral, 100 mg, Regimen 1A 100 mg, Day 1 single dose, solid malignancies, N = 3, read-out: T½, Geo Mean (% CV) (converted)) of 16.3 h, a Tmax (human, plasma, oral, 100 mg, Regimen 1A 100 mg, Day 1 single dose, solid malignancies, N = 4, read-out: Tmax, median) of 3.5 h and a half-life (human, plasma, oral, 200 mg, Regimen 1A 200 mg, Day 1 single dose, solid malignancies, N = 4, read-out: T½, Geo Mean (% CV) (converted)) of 15.1 h. It also gave a Tmax (human, plasma, oral, 200 mg, Regimen 1A 200 mg, Day 1 single dose, solid malignancies, N = 5, read-out: Tmax, median) of 3 h, a half-life (human, plasma, oral, 250 mg, Regimen 1A 250 mg, Day 1 single dose, solid malignancies, N = 5, read-out: T½, Geo Mean (% CV) (converted)) of 15.3 h and an AUC(0-t) [4] of 23900 ng·h/mL. The Cmax [4] was 1070 ng/mL, the Tmax (human, plasma, oral, 250 mg, Regimen 1A 250 mg, Day 1 single dose, solid malignancies, N = 6, read-out: Tmax, median) was 3.5 h and the half-life (human, plasma, oral, 350 mg, Regimen 1A 350 mg, Day 1 single dose, solid malignancies, N = 4, read-out: T½, Geo Mean (% CV) (converted)) was 15.1 h. For the same compound, the AUC(0-t) [5] was 50500 ng·h/mL, the Cmax [5] was 1940 ng/mL and the Tmax (human, plasma, oral, 350 mg, Regimen 1A 350 mg, Day 1 single dose, solid malignancies, N = 5, read-out: Tmax, median) was 4.1 h. It also gave a half-life (human, plasma, oral, after Day 1 single dose (50-350 mg), read-out: Median half-life) of 13.7 to 23.1 h, a half-life (human, plasma, oral, after a single dose (50 to 350 mg), read-out: Mean T½) of 11.8 to 16.3 h and a Vd/F (human, plasma, oral, population PK, 1-compartment model, read-out: apparent volume of distribution of the central compartment (Vc/F), mean population estimate) of 119 L. The Tmax (human, plasma, po, across dose range 2 to 350 mg, read-out: median time to reach maximum plasma concentrations (Tmax)) was 2 to 5.8 h, the “dose proportionality of PK (AUClast and Cmax)” value was “approximately dose proportional” and the “dose proportionality of PK (AUClast and Cmax)” value (listed as NVP-HDM201) was “no major deviations from dose proportionality”. For the same compound, the “inter-individual variability of CL/F” value (population PK) was 48%, the “inter-individual variability of Vc/F” value (population PK) was 30% and the “apparent oral clearance (CL/F), mean population estimate” value (population PK, 1-compartment model) was 6.18 L/h. The “patients with estimated average concentration per cycle near or above tumor stasis concentration” value (regimen 1B 120 mg, out of 9 patients) was 7.
